The text below walks through data of ChEMBL document CHEMBL4229448 (Bioorg Med Chem Lett, 2018).

Series [1] addresses T1, Cholinesterase (Equus caballus, UniProt P81908). Description: Inhibition of horse serum BuChE using acetylthiocholine as substrate by UV-visible spectrophotometric Ellman's method. In general terms: DTNB colorimetry detects thiols as they appear.
Series [2] concerns the target T2, Acetylcholinesterase (Homo sapiens, UniProt P22303). Description: Inhibition of human recombinant AChE at 0.05 uM using acetylthiocholine as substrate by UV-visible spectrophotometric Ellman's method.
Series [3] has as its target T2, Acetylcholinesterase. Description: Inhibition of human recombinant AChE using acetylthiocholine as substrate by UV-visible spectrophotometric Ellman's method.
In series [4] the target is Cholinesterase (Equus caballus) (UniProt P81908). Description: Inhibition of horse serum BuChE at 0.1 uM using acetylthiocholine as substrate by UV-visible spectrophotometric Ellman's method.
Sequence of Cholinesterase (Equus caballus) (P81908 whole entry): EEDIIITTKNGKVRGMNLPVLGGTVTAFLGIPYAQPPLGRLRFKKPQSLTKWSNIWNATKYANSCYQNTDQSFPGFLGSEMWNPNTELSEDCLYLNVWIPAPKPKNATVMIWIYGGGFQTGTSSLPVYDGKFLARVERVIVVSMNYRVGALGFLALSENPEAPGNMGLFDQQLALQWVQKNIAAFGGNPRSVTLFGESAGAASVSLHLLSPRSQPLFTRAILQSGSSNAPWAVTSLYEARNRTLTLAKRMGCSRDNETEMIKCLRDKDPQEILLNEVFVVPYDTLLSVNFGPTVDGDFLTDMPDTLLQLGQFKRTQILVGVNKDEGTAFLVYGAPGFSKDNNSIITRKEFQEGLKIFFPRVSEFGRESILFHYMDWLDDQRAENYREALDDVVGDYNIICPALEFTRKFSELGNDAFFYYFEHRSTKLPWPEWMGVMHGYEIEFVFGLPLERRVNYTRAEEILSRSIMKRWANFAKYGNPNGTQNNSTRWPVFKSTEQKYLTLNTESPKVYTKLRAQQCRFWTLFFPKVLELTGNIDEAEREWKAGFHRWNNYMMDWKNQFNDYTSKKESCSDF
The subject of a further series is SH-SY5Y. Description: Cytotoxicity against human SH-SY5Y cells assessed as decrease in cell viability after 48 hrs by MTT assay. It is filed as cell-based. In general terms: Tetrazolium assays rely on reduction of a dye to a coloured formazan, in cell work by metabolically active cells.
Series [5] is described as follows: Effective permeability of the compound at 100 ug/ml after 16 hrs by PAMPA.
Series [6] can be described thus: Half life in pH 6.5 fasted state simulated intestinal fluid. Format: ADME.
Series [7] in a line: Half life in rat liver microsomes. Format: ADME, microsome. (In general: Liver microsomes are vesicles of endoplasmic reticulum, rich in cytochrome P450 enzymes.)
The nature of series [8]: Metabolic stability in human plasma assessed as compound remaining measured after 120 mins. The following applies: read-out: Stability. Format: ADME, cell-free.
Series [9] concerns the target T1, Cholinesterase.
Description: Inhibition of horse serum BuChE using acetylthiocholine as substrate after 60 mins by FRET assay

The source made the active and inactive calls. No cut-off for these calls is given here.

T1 sequence (P81908 whole entry): as above
T2 sequence (P22303 whole entry): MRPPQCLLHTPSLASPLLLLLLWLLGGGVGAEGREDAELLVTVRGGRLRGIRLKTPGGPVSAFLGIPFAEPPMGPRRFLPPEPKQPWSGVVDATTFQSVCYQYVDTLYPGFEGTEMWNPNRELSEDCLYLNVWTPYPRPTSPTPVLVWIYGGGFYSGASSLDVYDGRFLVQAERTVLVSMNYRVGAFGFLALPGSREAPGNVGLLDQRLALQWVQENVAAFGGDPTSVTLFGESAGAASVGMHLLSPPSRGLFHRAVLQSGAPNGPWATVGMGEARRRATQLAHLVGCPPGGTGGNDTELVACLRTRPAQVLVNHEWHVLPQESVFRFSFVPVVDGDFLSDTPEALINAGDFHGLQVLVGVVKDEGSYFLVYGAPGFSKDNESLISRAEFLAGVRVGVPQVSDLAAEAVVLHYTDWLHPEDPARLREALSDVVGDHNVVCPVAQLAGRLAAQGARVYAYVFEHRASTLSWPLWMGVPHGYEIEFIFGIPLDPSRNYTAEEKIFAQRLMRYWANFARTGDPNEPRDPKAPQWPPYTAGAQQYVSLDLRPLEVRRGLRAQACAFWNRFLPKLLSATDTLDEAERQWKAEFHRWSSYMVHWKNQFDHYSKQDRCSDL

Turning to `C[C@@H](NC(=O)c1cc(C(=O)N[C@@H](Cc2ccccc2)[C@H](O)CNC2CC2)cc(N(C)S(C)(=O)=O)c1)c1ccccc1`, the 50% inhibitory concentration (IC50) (as a rule, the concentration that gives 50% inhibition) against Cholinesterase [1] was 14.6 nM.
As to `COc1ccc2c(c1)C/C(=C/c1ccccc1-c1ccc3nc(N)ccc3c1)C2=O`, the inhibition result (at Acetylcholinesterase [2]; in series [4]) was “Active” in each case. For the same molecule, the IC50 on Acetylcholinesterase [3] was 14.7 nM; on Cholinesterase [1] it was 13.1 nM; in the series on SH-SY5Y, over 50000 nM; against Cholinesterase [9] it was 1780 nM. Also, the apparent permeability (Papp) (usually a coefficient for how fast a substance crosses the barrier) at 16 h, 100 ug/ml in series [5] was 24.3 ×10⁻⁶ cm/s. The half-life (commonly the time in which the quantity being followed falls by half) in series [6] was 9.63 h; in series [7], 3.78 h. In addition, the remaining at 2 h in [8] was found to be 96.1%.
`COc1ccc2c(c1)C/C(=C/c1ccccc1-c1ccccc1)C2=O`: the inhibition result (on Acetylcholinesterase [2]; in series [4]) was “Active” each time. Further, the IC50 at Acetylcholinesterase [3] is 29.8 nM; on Cholinesterase [1], 125 nM; with SH-SY5Y, over 50000 nM; against Cholinesterase [9] it was 3310 nM. This molecule also registered a Papp at 16 h, 100 ug/ml in series [5] of 26.6 ×10⁻⁶ cm/s. The half-life in series [6] is 9.85 h; in series [7], 4.05 h. Also, the remaining at 2 h in [8] came to 98.6%.
With `CC[C@H]1OC(=O)[C@H](C)[C@@H](O[C@H]2C[C@@](C)(OC)[C@@H](O)[C@H](C)O2)[C@H](C)[C@@H](O[C@@H]2O[C@H](C)C[C@H](N(C)C)[C@H]2O)[C@](C)(O)C[C@@H](C)C(=O)[C@H](C)[C@@H](O)[C@]1(C)O` [ERYTHROMYCIN], the half-life in [6] was 8.25 h.
`COc1ccc(-c2ccccc2/C=C2/Cc3cc(OC)ccc3C2=O)cc1`: the inhibition entry (on Acetylcholinesterase [2]; in series [4]) was “Active” each time. Also, the IC50 at Acetylcholinesterase [3] was 21.2 nM; on Cholinesterase [1], 99.4 nM; with SH-SY5Y, over 50000 nM; at Cholinesterase [9], 2150 nM. In addition, the Papp at 16 h, 100 ug/ml in series [5] is 26.2 ×10⁻⁶ cm/s. Also, the half-life is 8.57 h in series [6] and 3.58 h in series [7]. The remaining at 2 h in series [8] is 97.5%.
Turning to `COc1ccc2c(c1)C/C(=C/C1CCN(Cc3ccccc3)CC1)C2=O`, the IC50 was 44.1 nM on Acetylcholinesterase [3] and 341 nM against Cholinesterase [1]. For the same molecule, the inhibition entry in series [4] is “Active”.
As to `CC(C)[N+](C)(CCOC(=O)C1c2ccccc2Oc2ccccc21)C(C)C` [PROPANTHELINE], in series [8], the remaining at 2 h is 2.83%.
Regarding `COc1ccc2c(c1)C/C(=C/c1ccccc1-c1ccc3ccccc3c1)C2=O`, the inhibition result (on Acetylcholinesterase [2]; in series [4]) was “Active” each time. Moreover, the IC50 at Acetylcholinesterase [3] was 32.4 nM; at Cholinesterase [1] it was 101 nM; in the series with SH-SY5Y, over 50000 nM; on Cholinesterase [9] it was 3970 nM. The Papp at 16 h, 100 ug/ml in [5] turned out to be 28.5 ×10⁻⁶ cm/s. In addition, the figures for the half-life in [6] and in series [7] were 10.2 h and 4.65 h, respectively. Besides, the remaining at 2 h in [8] amounted to 99.2%.
